Source: the NIST ThermoML archive (doi:10.1021/je060271a)
Where “and” joins values, the source holds several entries; their conditions need not be identical. Equal entries are not always repeated.

Conditions: 283.15 K, Liquid, Vibrating tube method

CCCCCCCC(=O)OCC(COC(=O)CCCCCCC)(COC(=O)CCCCCCC)COC(=O)CCCCCCC [pentaerythritol tetraoctanoate]
Conditions	mass density
105.3 kPa	970.3 kg/m3
105.5 kPa	970.3 kg/m3 and 970.4 kg/m3
105.6 kPa	970.3 kg/m3
105.8 kPa	970.4 kg/m3
106.7 kPa	970.3 kg/m3
110 kPa	970.3 kg/m3
125.3 kPa	970.3 kg/m3
155.9 kPa	970.3 kg/m3
203.3 kPa	970.4 kg/m3
224.9 kPa	970.3 kg/m3
235.2 kPa	970.4 kg/m3
246.6 kPa	970.5 kg/m3
262.8 kPa	970.4 kg/m3
277.9 kPa	970.4 kg/m3
295.3 kPa	970.4 kg/m3
319.3 kPa	970.4 kg/m3
342 kPa	970.5 kg/m3
369 kPa	970.5 kg/m3
405 kPa	970.4 kg/m3
438.1 kPa	970.4 kg/m3
468.4 kPa	970.6 kg/m3
495.5 kPa	970.6 kg/m3
514.6 kPa	970.6 kg/m3
534.1 kPa	970.6 kg/m3
557.4 kPa	970.6 kg/m3
575.1 kPa	970.6 kg/m3
593.5 kPa	970.7 kg/m3
616.6 kPa	970.7 kg/m3
636.3 kPa	970.5 kg/m3
653.5 kPa	970.7 kg/m3
671.5 kPa	970.7 kg/m3
693.4 kPa	970.7 kg/m3
713.6 kPa	970.7 kg/m3
734.1 kPa	970.7 kg/m3
760.8 kPa	970.8 kg/m3
784.3 kPa	970.7 kg/m3
808.6 kPa	970.7 kg/m3
834.5 kPa	970.7 kg/m3
866.8 kPa	970.7 kg/m3
896 kPa	970.7 kg/m3
926.4 kPa	970.8 kg/m3
962 kPa	970.8 kg/m3
986 kPa	970.9 kg/m3
1010.4 kPa	970.9 kg/m3
1035.5 kPa	970.8 kg/m3
1066.4 kPa	970.9 kg/m3
1094 kPa	970.9 kg/m3
1122.1 kPa	970.9 kg/m3
1158.4 kPa	971 kg/m3
1189.3 kPa	971 kg/m3
1219.2 kPa	971 kg/m3
1247.3 kPa	971 kg/m3
1270.1 kPa	971 kg/m3
1293 kPa	971 kg/m3
1317.3 kPa	971 kg/m3
1349.3 kPa	971.1 kg/m3
1370.1 kPa	971 kg/m3
1401.5 kPa	971 kg/m3
1428.9 kPa	971 kg/m3
1457.4 kPa	971 kg/m3
1492.1 kPa	971.2 kg/m3
1522.7 kPa	971.1 kg/m3
1554.3 kPa	971.1 kg/m3
1587.1 kPa	971.2 kg/m3
1627.7 kPa	971.1 kg/m3
1662.8 kPa	971.2 kg/m3
1700.3 kPa	971.2 kg/m3
1747.1 kPa	971.3 kg/m3
1789.7 kPa	971.2 kg/m3
1830.4 kPa	971.3 kg/m3
1873.1 kPa	971.3 kg/m3
1917.2 kPa	971.4 kg/m3
1972.4 kPa	971.4 kg/m3
2020.6 kPa	971.4 kg/m3
2068.2 kPa	971.4 kg/m3
2110.9 kPa	971.5 kg/m3
2137.9 kPa	971.4 kg/m3
2158.6 kPa	971.5 kg/m3
2179.8 kPa	971.5 kg/m3
2205.6 kPa	971.5 kg/m3
2227.8 kPa	971.7 kg/m3
2250.5 kPa	971.5 kg/m3
2273.6 kPa	971.6 kg/m3
2301.4 kPa	971.6 kg/m3
2325.3 kPa	971.7 kg/m3
2348.9 kPa	971.5 kg/m3
2373 kPa	971.7 kg/m3
2403 kPa	971.7 kg/m3
2427.5 kPa	971.6 kg/m3
2457.8 kPa	971.7 kg/m3
2484 kPa	971.6 kg/m3
2510.7 kPa	971.8 kg/m3
2543.2 kPa	971.8 kg/m3
2571.1 kPa	971.7 kg/m3
2600.6 kPa	971.7 kg/m3
2629 kPa	971.8 kg/m3
2663.7 kPa	971.7 kg/m3
2693.4 kPa	971.8 kg/m3
2723.9 kPa	971.8 kg/m3
2760.8 kPa	971.9 kg/m3
2792.7 kPa	971.8 kg/m3
2824.8 kPa	971.9 kg/m3
2857.6 kPa	971.9 kg/m3
2897.6 kPa	971.9 kg/m3
2931.4 kPa	971.9 kg/m3
2966.3 kPa	972 kg/m3
3008.8 kPa	972 kg/m3
3045.9 kPa	972.1 kg/m3
3082.4 kPa	972.1 kg/m3
3127.9 kPa	971.9 kg/m3
3166.3 kPa	972 kg/m3
3205 kPa	972.1 kg/m3
3245 kPa	972 kg/m3
3285.9 kPa	972.1 kg/m3
3335.9 kPa	972.2 kg/m3
3377.6 kPa	972.1 kg/m3
3420.8 kPa	972.2 kg/m3
3473.3 kPa	972.3 kg/m3
3517.6 kPa	972.2 kg/m3
3564.3 kPa	972.3 kg/m3
3620 kPa	972.3 kg/m3
3667.5 kPa	972.3 kg/m3
3715.9 kPa	972.5 kg/m3
3763.5 kPa	972.5 kg/m3
3809.1 kPa	972.5 kg/m3
3824.1 kPa	972.4 kg/m3
3841.3 kPa	972.6 kg/m3
3855.7 kPa	972.5 kg/m3
3869.7 kPa	972.6 kg/m3
3883.9 kPa	972.5 kg/m3
3899.8 kPa	972.5 kg/m3
4015.4 kPa	972.5 kg/m3
4176.4 kPa	972.7 kg/m3
4313.4 kPa	972.7 kg/m3
4335.2 kPa	972.8 kg/m3
4353.7 kPa	972.9 kg/m3
4372.3 kPa	972.8 kg/m3
4391.7 kPa	972.7 kg/m3
4414.3 kPa	972.8 kg/m3
4433.6 kPa	972.8 kg/m3
4453.1 kPa	972.8 kg/m3
4475.4 kPa	972.8 kg/m3
4475.5 kPa	972.8 kg/m3
4478.4 kPa	972.9 kg/m3
4490.5 kPa	972.9 kg/m3
4492.3 kPa	972.8 kg/m3
4499.1 kPa	972.9 kg/m3
4499.9 kPa	972.9 kg/m3
4501.9 kPa	972.9 kg/m3
4502.4 kPa	972.9 kg/m3
4503 kPa	972.9 kg/m3 and 972.8 kg/m3
4503.5 kPa	972.8 kg/m3 and 972.9 kg/m3
4505.4 kPa	972.9 kg/m3
4508 kPa	973 kg/m3
4510.6 kPa	972.9 kg/m3
4512.1 kPa	972.8 kg/m3
4513.2 kPa	972.9 kg/m3
4519.1 kPa	972.9 kg/m3
4544.7 kPa	972.8 kg/m3
4566.3 kPa	972.8 kg/m3
4589 kPa	972.9 kg/m3
4613.1 kPa	972.9 kg/m3
4644 kPa	972.9 kg/m3
4671.2 kPa	973 kg/m3
4696.3 kPa	973 kg/m3
4730.1 kPa	973 kg/m3
4758.6 kPa	973 kg/m3
4787.7 kPa	973.1 kg/m3
4817.5 kPa	973.1 kg/m3
4847.6 kPa	972.9 kg/m3
4883.9 kPa	973 kg/m3
4914.4 kPa	973.1 kg/m3
4945.7 kPa	973.1 kg/m3
4982.7 kPa	973.1 kg/m3
5014 kPa	973.2 kg/m3
5046.2 kPa	973.1 kg/m3
5085.5 kPa	973.2 kg/m3
5118.2 kPa	973.2 kg/m3
5152.1 kPa	973.1 kg/m3
5187.4 kPa	973.3 kg/m3
5230.5 kPa	973.3 kg/m3
5268 kPa	973.4 kg/m3
5301.1 kPa	973.3 kg/m3
5328.4 kPa	973.3 kg/m3
5360.9 kPa	973.4 kg/m3
5388.3 kPa	973.3 kg/m3
5416.4 kPa	973.3 kg/m3
5445 kPa	973.4 kg/m3
5479.2 kPa	973.5 kg/m3
5507.9 kPa	973.4 kg/m3
5537.9 kPa	973.4 kg/m3
5567.3 kPa	973.5 kg/m3
5603.1 kPa	973.6 kg/m3
5664.1 kPa	973.4 kg/m3
5695.6 kPa	973.6 kg/m3
5733.6 kPa	973.7 kg/m3
5766.5 kPa	973.5 kg/m3
5806.4 kPa	973.6 kg/m3
5839.8 kPa	973.6 kg/m3
5864 kPa	973.6 kg/m3
5890.1 kPa	973.8 kg/m3
5912.2 kPa	973.6 kg/m3
5934.9 kPa	973.7 kg/m3
5958.4 kPa	973.7 kg/m3
5985.4 kPa	973.8 kg/m3
6009 kPa	973.7 kg/m3
6033.2 kPa	973.8 kg/m3
6058.3 kPa	973.9 kg/m3
6083.5 kPa	973.7 kg/m3
6114.7 kPa	973.7 kg/m3
6133.8 kPa	973.8 kg/m3
6146.1 kPa	973.7 kg/m3
6160.5 kPa	973.8 kg/m3
6172.9 kPa	973.9 kg/m3
6185.2 kPa	973.8 kg/m3
6197.6 kPa	973.8 kg/m3
6211.8 kPa	973.8 kg/m3
6223.9 kPa	973.8 kg/m3
6236.2 kPa	973.9 kg/m3
6249.3 kPa	973.9 kg/m3
6264.2 kPa	973.9 kg/m3
6277.1 kPa	974.1 kg/m3
6289.8 kPa	973.9 kg/m3
6302.4 kPa	973.9 kg/m3
6317.2 kPa	973.8 kg/m3
6330 kPa	973.9 kg/m3
6342.8 kPa	974 kg/m3
6358 kPa	974 kg/m3
6370.8 kPa	973.9 kg/m3
6383.6 kPa	973.9 kg/m3
6399 kPa	973.9 kg/m3
6412.5 kPa	974 kg/m3
6425.5 kPa	973.9 kg/m3
6438.7 kPa	974 kg/m3
6452 kPa	974 kg/m3
6467.9 kPa	974 kg/m3
6481 kPa	974 kg/m3
6494.5 kPa	974.2 kg/m3
6510.4 kPa	974 kg/m3
6523.9 kPa	974 kg/m3
6537.9 kPa	974.1 kg/m3
6551.3 kPa	973.9 kg/m3
6567.7 kPa	974.1 kg/m3
6581.8 kPa	974 kg/m3
6596.4 kPa	974.1 kg/m3
6610.8 kPa	974.1 kg/m3
6627.5 kPa	974.1 kg/m3
6641.5 kPa	974.1 kg/m3
6655.5 kPa	974 kg/m3
6669.7 kPa	974.1 kg/m3
6686.6 kPa	974.2 kg/m3
6700.8 kPa	974.1 kg/m3
6715.1 kPa	974.1 kg/m3
6732.2 kPa	974.1 kg/m3
6746.8 kPa	974.1 kg/m3
6761.4 kPa	974.2 kg/m3
6776.5 kPa	974.1 kg/m3
6793.7 kPa	974.1 kg/m3
6808.6 kPa	974.2 kg/m3
6823.5 kPa	974.2 kg/m3
6838.3 kPa	974 kg/m3
6856.4 kPa	974.1 kg/m3
6871.7 kPa	974.2 kg/m3
6886.9 kPa	974.2 kg/m3
6902.1 kPa	974.3 kg/m3
6920.2 kPa	974.3 kg/m3
6935.4 kPa	974.3 kg/m3
6950.9 kPa	974.3 kg/m3
6969.4 kPa	974.3 kg/m3
6985 kPa	974.3 kg/m3
7001 kPa	974.3 kg/m3
7016.8 kPa	974.3 kg/m3
7035.6 kPa	974.3 kg/m3
7051.3 kPa	974.3 kg/m3
7067 kPa	974.3 kg/m3
7083.6 kPa	974.3 kg/m3
7102.8 kPa	974.3 kg/m3
7119 kPa	974.3 kg/m3
7135.2 kPa	974.4 kg/m3
7154.7 kPa	974.4 kg/m3
7171.1 kPa	974.3 kg/m3
7187.5 kPa	974.3 kg/m3
7204.5 kPa	974.4 kg/m3
7221.2 kPa	974.5 kg/m3
7241.1 kPa	974.5 kg/m3
7257.8 kPa	974.4 kg/m3
7274.9 kPa	974.6 kg/m3
7295 kPa	974.5 kg/m3
7311.7 kPa	974.4 kg/m3
7329.3 kPa	974.4 kg/m3
7346.6 kPa	974.5 kg/m3
7367.1 kPa	974.6 kg/m3
7384.6 kPa	974.5 kg/m3
7402.3 kPa	974.6 kg/m3
7423.4 kPa	974.5 kg/m3
